These results are taken from patent US7514448B2, “Azaindoles useful as inhibitors of rock and other protein kinases” (Vertex Pharmaceuticals Incorporated, priority 2004, dated 2009).

Where two headings read alike, the source gives them in different places.

The target of one assay is ROCK (Homo sapiens, UniProt Q13464). The experiment in a line: ROCK radioactive assay ("33P"). The format is biochemical. The text has this: If more than one value of Ki has been determined, the average Ki is indicated. If no value is indicated, then the Ki was not determined.
ROCK, sequence (Q13464 whole entry): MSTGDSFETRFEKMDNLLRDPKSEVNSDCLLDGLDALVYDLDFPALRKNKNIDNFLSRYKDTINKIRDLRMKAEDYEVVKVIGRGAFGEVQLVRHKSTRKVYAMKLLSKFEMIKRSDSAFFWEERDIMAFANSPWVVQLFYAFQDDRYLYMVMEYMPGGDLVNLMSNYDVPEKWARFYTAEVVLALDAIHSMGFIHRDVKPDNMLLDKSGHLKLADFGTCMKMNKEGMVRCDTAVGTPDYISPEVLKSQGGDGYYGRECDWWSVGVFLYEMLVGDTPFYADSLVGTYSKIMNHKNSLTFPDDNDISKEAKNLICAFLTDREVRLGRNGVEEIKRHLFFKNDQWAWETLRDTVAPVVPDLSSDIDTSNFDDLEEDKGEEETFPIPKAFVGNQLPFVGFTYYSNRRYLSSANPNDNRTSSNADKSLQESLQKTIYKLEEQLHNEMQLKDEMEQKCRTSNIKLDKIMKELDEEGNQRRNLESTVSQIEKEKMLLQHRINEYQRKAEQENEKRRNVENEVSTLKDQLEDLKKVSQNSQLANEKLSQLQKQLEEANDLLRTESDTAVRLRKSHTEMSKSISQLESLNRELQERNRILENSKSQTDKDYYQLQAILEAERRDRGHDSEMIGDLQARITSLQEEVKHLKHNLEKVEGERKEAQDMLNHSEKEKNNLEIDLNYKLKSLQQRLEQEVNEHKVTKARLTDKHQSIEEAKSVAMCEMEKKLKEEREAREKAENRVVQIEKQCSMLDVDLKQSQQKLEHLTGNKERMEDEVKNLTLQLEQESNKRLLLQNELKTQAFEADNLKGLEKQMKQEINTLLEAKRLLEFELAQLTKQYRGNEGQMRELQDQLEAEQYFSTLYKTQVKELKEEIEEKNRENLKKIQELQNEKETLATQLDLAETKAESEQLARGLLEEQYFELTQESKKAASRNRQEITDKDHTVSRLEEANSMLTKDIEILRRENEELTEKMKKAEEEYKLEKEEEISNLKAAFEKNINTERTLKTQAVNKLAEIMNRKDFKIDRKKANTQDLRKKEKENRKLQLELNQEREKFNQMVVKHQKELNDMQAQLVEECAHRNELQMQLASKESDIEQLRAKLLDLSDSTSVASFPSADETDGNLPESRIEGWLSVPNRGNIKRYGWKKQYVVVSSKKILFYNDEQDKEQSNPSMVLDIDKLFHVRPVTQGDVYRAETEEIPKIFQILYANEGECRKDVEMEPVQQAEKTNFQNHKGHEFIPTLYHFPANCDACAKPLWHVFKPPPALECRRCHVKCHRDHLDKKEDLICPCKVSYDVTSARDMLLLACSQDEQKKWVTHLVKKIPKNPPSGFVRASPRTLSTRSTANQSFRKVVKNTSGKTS
The target in a further assay is PKA (Homo sapiens, UniProt P17612). Put plainly: PKA inhibition assay, coupled enzyme. The format is biochemical. To be noted: average Ki if more than one determined. Here is the method: Compounds were screened for their ability to inhibit PKA using a standard coupled enzyme assay (Fox et al., Protein Sci, 1998, 7, 2249). Assays were carried out in a mixture of 100 mM HEPES (pH 7.5), 10 mM MgCl2, 25 mM NaCl, 1 mM DTT and 3% DMSO. Final substrate concentrations in the assay were 50 μM ATP (Sigma Chemicals) and 80 μM peptide (Kemptide, American Peptide, Sunnyvale, Calif.). Assays were carried out at 30° C. and 18 nM PKA. Final concentrations of the components of the coupled enzyme system were 2.5 mM phosphoenolpyruvate, 300 μM NADH, 30 μg/ml pyruvate kinase and 10 μg/ml lactate dehydrogenase.
An assay stock buffer solution was prepared containing all of the reagents listed above, with the exception of ATP, and the test compound of the present invention. […] The plate was preincubated for 10 minutes at 30° C. and the reaction initiated by addition of 5 μl of ATP (final concentration 50 μM). Initial reaction rates were determined with a Molecular Devices SpectraMax Plus plate reader over a 15 minute time course. IC50 and Ki data were calculated from non-linear regression analysis using the Prism software package (GraphPad Prism version 3.0a for Macintosh, GraphPad Software, San Diego Calif., USA).

[1] abbreviates: radioactive assay, average Ki if more than one determined, read-out: ROCK 33P Ki.

Broadly, the Ki is a measure of affinity in units of concentration, obtained from inhibition or displacement. `CCS(=O)(=O)NCC(=O)Nc1nc(-c2c[nH]c3ncccc23)cs1` [II-218]: the Ki at ROCK (setting [1]) and at PKA was < 500 nM each time. For the compound `C[C@@H](CO)NC(=O)c1nc(-c2c[nH]c3ncccc23)cs1` [II-182], the values for the Ki on ROCK (setting [1]) and on PKA were < 500 nM and 500 to 5000 nM, respectively. The corresponding values for `NCCC(C(=O)Nc1nc(-c2c[nH]c3ncccc23)cs1)c1ccccc1Cl` (stereo not drawn) [II-192] are < 500 nM and < 500 nM. In the same order, the values of `O=C1NCC(C(=O)Nc2nc(-c3c[nH]c4ncccc34)cs2)N1` (stereo not drawn) [II-147] are < 500 nM and < 500 nM. In the same order, the values of `N#CC1(C(=O)Nc2nc(-c3c[nH]c4ncccc34)cs2)CC1` [II-133] are < 500 nM and < 500 nM. Turning to `O=C(Cc1cccc(NS(=O)(=O)CCCN2CCOCC2)c1)Nc1nc(-c2c[nH]c3ncccc23)cs1` [II-169], the Ki on ROCK (setting [1]) and on PKA was < 500 nM throughout. In the case of `CC(C)C(O)C(=O)Nc1nc(-c2c[nH]c3ncccc23)cs1` (stereo not drawn) [II-159], the Ki on ROCK (setting [1]) and on PKA was < 500 nM each time. `CN1CCN(CCCS(=O)(=O)Nc2cccc(CC(=O)Nc3nc(-c4c[nH]c5ncccc45)cs3)c2)CC1` [II-167]: the Ki on ROCK (setting [1]) and at PKA was < 500 nM each time. As to `c1cnc2[nH]cc(-c3csc(NCC4CCCO4)n3)c2c1` (stereo not drawn) [II-200], the Ki at ROCK (setting [1]) and at PKA was 500 to 5000 nM throughout. `CC(=O)N(CCCN1CCN(C)CC1)c1nc(-c2c[nH]c3ncccc23)cs1` [II-204]: the inhibition constant (Ki) is < 500 nM on ROCK (setting [1]) and 500 to 5000 nM at PKA. The corresponding values for `O=C(NCc1cccc(S(=O)(=O)N2CCOCC2)c1)c1csc(-c2c[nH]c3ncccc23)c1` [II-130] are < 500 nM and 500 to 5000 nM. In the same order, the values of `O=C(N[C@H](CO)c1ccccc1)c1nc(-c2c[nH]c3ncccc23)cs1` [II-184] are < 500 nM and < 500 nM. The corresponding values for `CC(C)NC(=O)Nc1nc(-c2c[nH]c3ncccc23)cs1` [II-244] are < 500 nM and 500 to 5000 nM. Turning to `CNCC(=O)Nc1nc(-c2c[nH]c3ncccc23)cs1` [II-179], the Ki on ROCK (setting [1]) and on PKA was < 500 nM each time.

With `CN(C)S(=O)(=O)Nc1cccc(CC(=O)Nc2nc(-c3c[nH]c4ncccc34)cs2)c1` [II-193], the Ki at ROCK (setting [1]) and at PKA was < 500 nM each time. As to `O=C(Nc1nc(-c2c[nH]c3ncccc23)cs1)C1(O)CC1` [II-158], the Ki on ROCK (setting [1]) and on PKA was < 500 nM in each case.

For the compound `CC(=O)NCCC(=O)Nc1nc(-c2c[nH]c3ncccc23)cs1` [II-164], the Ki is < 500 nM on ROCK (setting [1]) and 500 to 5000 nM on PKA. As to `CN1CCN(CCCNc2nc(-c3c[nH]c4ncccc34)cs2)CC1` [II-198], the Ki at ROCK (setting [1]) and at PKA was 500 to 5000 nM in each case. In the case of `CC(=O)N[C@@H](C)C(=O)Nc1nc(-c2c[nH]c3ncccc23)cs1` [II-145], the Ki is < 500 nM on ROCK (setting [1]) and 500 to 5000 nM on PKA.

For the compound `O=C(Nc1nc(-c2c[nH]c3ncccc23)cs1)C(O)c1ccc(F)cc1F` (stereo not drawn) [II-209], the inhibitory constant (Ki) on ROCK (setting [1]) and at PKA was < 500 nM each time.

As for `CC(CN(C)C)NC(=O)Nc1nc(-c2c[nH]c3ncccc23)cs1` (stereo not drawn) [II-242], the Ki at ROCK (setting [1]) and at PKA was 500 to 5000 nM each time. In the case of `NCCC(C(=O)Nc1nc(-c2c[nH]c3ncccc23)cs1)c1ccc(F)cc1` (stereo not drawn) [II-190], the Ki on ROCK (setting [1]) and on PKA was < 500 nM each time.

Take `CS(=O)(=O)CC(=O)Nc1nc(-c2c[nH]c3ncccc23)cs1` [II-161]: the Ki on ROCK (setting [1]) and on PKA was < 500 nM in each case. In the case of `NCCC(C(=O)Nc1nc(-c2c[nH]c3ncccc23)cs1)c1ccccc1` (stereo not drawn) [II-189], the Ki on ROCK (setting [1]) and at PKA was < 500 nM each time. For `NCC(C(=O)Nc1nc(-c2c[nH]c3ncccc23)cs1)c1ccc(F)cc1Cl` (stereo not drawn) [II-196], the Ki on ROCK (setting [1]) and at PKA was < 500 nM throughout. In the case of `CO[C@@H](C)C(=O)Nc1nc(-c2c[nH]c3ncccc23)cs1` [II-144], the Ki at ROCK (setting [1]) is < 500 nM; at PKA, 500 to 5000 nM. The corresponding values for `CC(C)C[C@H](N)C(=O)Nc1nc(-c2c[nH]c3ncccc23)cs1` [II-166] are < 500 nM and < 500 nM.

In the case of `CN1CCN(CCCN(C(=O)Cc2cccc(NS(C)(=O)=O)c2)c2nc(-c3c[nH]c4ncccc34)cs2)CC1` [II-203], the Ki on ROCK (setting [1]) and on PKA was < 500 nM in each case.

As to `NCCC(=O)Nc1nc(-c2c[nH]c3ncccc23)cs1` [II-180], the inhibition constant (Ki) on ROCK (setting [1]) and at PKA was < 500 nM in each case.

Turning to `CS(=O)(=O)N[C@H](COCc1ccccc1)C(=O)Nc1nc(-c2c[nH]c3ncccc23)cs1` [II-232], the Ki on ROCK (setting [1]) and at PKA was < 500 nM throughout. For the compound `NCC(=O)Nc1nc(-c2c[nH]c3ncccc23)cs1` [II-165], the Ki on ROCK (setting [1]) and on PKA was < 500 nM in each case. For `CCCC(C(=O)Nc1nc(-c2c[nH]c3ncccc23)cs1)S(C)(=O)=O` (stereo not drawn) [II-224], the figures for the Ki at ROCK (setting [1]) and at PKA were < 500 nM and 500 to 5000 nM, respectively. The corresponding values for `CS(=O)(=O)N[C@@H](COCc1ccccc1)C(=O)Nc1nc(-c2c[nH]c3ncccc23)cs1` [II-233] are < 500 nM and < 500 nM.

As to `CC(C)C(CO)NC(=O)c1nc(-c2c[nH]c3ncccc23)cs1` (stereo not drawn) [II-183], the results for the Ki on ROCK (setting [1]) and at PKA were < 500 nM and 500 to 5000 nM, respectively.

Consider `O=C(Cc1ccccn1)Nc1nc(-c2c[nH]c3ncccc23)cs1` [II-215], for which the Ki at ROCK (setting [1]) and on PKA was < 500 nM each time. `CC(C)[C@H](NS(C)(=O)=O)C(=O)Nc1nc(-c2c[nH]c3ncccc23)cs1` [II-223]: the Ki on ROCK (setting [1]) and at PKA was < 500 nM each time. Consider `O=C(Nc1nc(-c2c[nH]c3ncccc23)cs1)NC1CCC(C(=O)O)CC1` (stereo not drawn) [II-239], for which the Ki was < 500 nM on ROCK (setting [1]) and 500 to 5000 nM at PKA.

With `CN1CCN(CCOc2cccc(CC(=O)Nc3nc(-c4c[nH]c5ncc(F)cc45)cs3)c2)CC1` [II-136], the Ki at ROCK (setting [1]) was < 500 nM; at PKA, 500 to 5000 nM. In the same order, the values of `O=C1C[C@H](C(=O)Nc2nc(-c3c[nH]c4ncccc34)cs2)N1` [II-152] are < 500 nM and < 500 nM. The corresponding values for `O=C(Nc1nc(-c2c[nH]c3ncccc23)cs1)[C@@H]1CCCN1` [II-171] are < 500 nM and < 500 nM. With `c1cnc2[nH]cc(-c3csc(NCCCN4CCOCC4)n3)c2c1` [II-197], the Ki at ROCK (setting [1]) and at PKA was 500 to 5000 nM each time. Take `O=C(Nc1nc(-c2c[nH]c3ncccc23)cs1)[C@@H](O)c1ccccc1` [II-207]: the Ki on ROCK (setting [1]) and on PKA was < 500 nM in each case. As for `CN1CCN(CCCOc2cccc(CC(=O)Nc3nc(-c4c[nH]c5ncc(F)cc45)cs3)c2)CC1` [II-137], the Ki was < 500 nM at ROCK (setting [1]) and 500 to 5000 nM at PKA. The corresponding values for `CN1CCN(CCCN(C(=O)Cc2ccccc2)c2nc(-c3c[nH]c4ncccc34)cs2)CC1` [II-201] are < 500 nM and < 500 nM. The corresponding values for `C[C@@H](NS(C)(=O)=O)C(=O)Nc1nc(-c2c[nH]c3ncccc23)cs1` [II-228] are < 500 nM and < 500 nM. The corresponding values for `O=C(NC1CCNCC1)c1nc(-c2c[nH]c3ncccc23)cs1` [II-187] are < 500 nM and < 500 nM. `C[C@H](NS(C)(=O)=O)C(=O)Nc1nc(-c2c[nH]c3ncccc23)cs1` [II-222]: the Ki at ROCK (setting [1]) and at PKA was < 500 nM throughout. Turning to `O=C(Nc1nc(-c2c[nH]c3ncccc23)cs1)[C@H](O)c1ccccc1` [II-210], the Ki at ROCK (setting [1]) and at PKA was < 500 nM in each case. `CCS(=O)(=O)C(C)C(=O)Nc1nc(-c2c[nH]c3ncccc23)cs1` (stereo not drawn) [II-221]: the Ki at ROCK (setting [1]) and on PKA was < 500 nM throughout.

Consider `NC(C(=O)Nc1nc(-c2c[nH]c3ncccc23)cs1)c1ccc(F)cc1` (stereo not drawn) [II-213], for which the Ki on ROCK (setting [1]) and at PKA was < 500 nM throughout. Turning to `O=C(Nc1nc(-c2c[nH]c3ncccc23)cs1)C1CCCNC1` (stereo not drawn) [II-173], the Ki at ROCK (setting [1]) and on PKA was < 500 nM throughout. As for `CN(C)C(=O)Nc1nc(-c2c[nH]c3ncccc23)cs1` [II-240], the Ki on ROCK (setting [1]) and on PKA was 500 to 5000 nM throughout. As for `NCC(C(=O)Nc1nc(-c2c[nH]c3ncccc23)cs1)c1cccc(Cl)c1Cl` (stereo not drawn) [II-195], the Ki at ROCK (setting [1]) and on PKA was < 500 nM throughout. With `O=C(Nc1nc(-c2c[nH]c3ncccc23)cs1)C1CCNCC1` [II-174], the Ki at ROCK (setting [1]) was < 500 nM; at PKA, 500 to 5000 nM.

Take `CC(O)C(=O)Nc1nc(-c2c[nH]c3ncccc23)cs1` (stereo not drawn) [II-143]: the Ki on ROCK (setting [1]) was < 500 nM; on PKA it was 500 to 5000 nM. For `CS(=O)(=O)Nc1cccc(CC(=O)Nc2nc(-c3c[nH]c4c3ccc[n+]4[O-])cs2)c1` [II-216], the Ki on ROCK was < 500 nM; on PKA, 500 to 5000 nM. For the compound `COc1cccc(CC(=O)Nc2nc(-c3c[nH]c4ncccc34)cs2)c1` [I-2], the Ki at PKA was < 500 nM. On the same count and under the same terms, the value for `O=C(Cc1cccc(O)c1)Nc1nc(-c2c[nH]c3ncccc23)cs1` [I-12] was < 500 nM.
